This is an account of results in patent US5128330A, “Oxazinone substituted phosphines” (Biofor, Ltd., priority 1991, dated 1992).

The test system of the assay is carrageenan-induced hind paw edema. Description: Acute antiinflammatory activity, carrageenan-induced paw edema test. In kind it is in vivo, Male Sprague-Dawley rats. Particulars: dosed 1 h before carrageenan, paw volume 3 h after carrageenan, rats. The protocol: Anti-Inflammatory: This activity was evaluated using a modification of the carrageenan-induced paw edema test described by C. A. Winter et al in Proc. Soc. […] This assay measures the ability of the test compound to antagonize local edema, a characteristic of the inflammatory response.
Acute antiinflammatory activity was evaluated using the carrageenan-inducedpaw edema test described by C. A. Winter, et al in Proc. Soc.
Male Sprague-Dawley rats were divided into groups of six rats each. […] One hour after dosing with the test compounds, the left hind paws were injected with a 0.1 ml carrageenan solution (1% in distilled water, sterilized) intraplantarly. Three hours after carrageenan injection the volume of the injected paws was redetermined. Group means were also determined and the drug effect was calculated as percent inhibition of the hind paw edema according to the following equation: [formula]
On the technique in general: The carrageenan paw model is a standard test of acute inflammation.

As to `CN1OCCC([P+](c2ccccc2)(c2ccccc2)c2ccccc2)C1=O` (centres unmarked) [Example 1, (dihydro-N-methyl-2H-1,2-oxazin-3(4H)-oxo-4-yl)triphenylphosphonium bromide], under “100 mg/kg”, the “% Inhibition (percent inhibition of the hind paw edema)” value came out at 62%.

Take `CC(=O)Oc1ccccc1C(=O)O` [Aspirin]: under “100 mg (so in the source)”, the “% Inhibition (percent inhibition of the hind paw edema)” value amounted to 50%.
